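Method: 48-hour compound exposure of cells in 96-well plates, five concentrations, linear interpolation of endpoints. Abbreviation: GI50, concentration required for 50% inhibition of growth. TGI is the concentration that stops growth completely.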 Where a SMILES comes first, the peptide text is derived from it. The star is where a group is joined. Palmitoyl = CCCCCCCCCCCCCCCC(=O)*
Legend:
Assay in all cases: NCI-60 cell line screen, 48 h
U251 CNS = tested on: U251 CNS
LOX IMVI melanoma = tested on: LOX IMVI melanoma
SNB-75 CNS = tested on: SNB-75 CNS
OVCAR-5 ovarian = tested on: OVCAR-5 ovarian
CCRF-CEM leukemia = tested on: CCRF-CEM leukemia
ACHN renal = tested on: ACHN renal
SK-MEL-28 melanoma = tested on: SK-MEL-28 melanoma
K-562 leukemia = tested on: K-562 leukemia
IGROV1 ovarian = tested on: IGROV1 ovarian
CAKI-1 renal = tested on: CAKI-1 renal

| Compound | TGI (U251 CNS) | TGI (LOX IMVI melanoma) | TGI (SNB-75 CNS) | TGI (OVCAR-5 ovarian) | TGI (CCRF-CEM leukemia) | TGI (ACHN renal) | TGI (SK-MEL-28 melanoma) | TGI (K-562 leukemia) | TGI (IGROV1 ovarian) | TGI (CAKI-1 renal) | GI50 (U251 CNS) | GI50 (LOX IMVI melanoma) | GI50 (SNB-75 CNS) | GI50 (CCRF-CEM leukemia) | GI50 (SK-MEL-28 melanoma) | GI50 (K-562 leukemia) | GI50 (OVCAR-5 ovarian) | GI50 (ACHN renal) | GI50 (IGROV1 ovarian) | GI50 (CAKI-1 renal) |
| --- | --- | --- | --- | --- | --- | --- | --- | --- | --- | --- | --- | --- | --- | --- | --- | --- | --- | --- | --- | --- |
| CON(C)c1nc(N(C)OC)nc(N(C)OC)n1 | > 10 µM | > 10 µM | > 10 µM | > 10 µM | > 10 µM | > 10 µM | > 10 µM | > 10 µM | > 10 µM | > 10 µM | – | – | – | – | – | – | – | – | – | – |
| Nc1nc(O)c2ncn([C@H]3CC[C@@H](CO)O3)c2n1 | > 100 µM | > 100 µM | > 100 µM | > 100 µM | > 100 µM | – | > 100 µM | > 100 µM | > 100 µM | > 100 µM | – | – | – | – | – | – | – | – | – | – |
| COC(=O)C1=C(OC(=O)/C(=C/c2ccc(Cl)cc2)c2ccc(Cl)cc2)C(C(=O)OC)[C@]2(O)[C@@H](C(=O)OC)[C@H]1C[C@@H](c1ccccc1)[C@@H]2C(=O)OC (some centres undefined) | > 100 µM | > 100 µM | > 100 µM | > 100 µM | – | > 100 µM | > 100 µM | > 100 µM | > 100 µM | > 100 µM | – | – | – | – | – | – | – | – | – | – |
| CC(N)Cc1ccc(Cl)c(Cl)c1 (centres undefined) | > 89.6 µM | > 68.5 µM | > 92.3 µM | > 82.5 µM | > 78.1 µM | > 84.6 µM | 39.1 µM | 44 µM | > 100 µM | 74.5 µM | – | – | – | – | – | – | – | – | – | – |
| Cc1c(-c2ccccc2)[nH]c2cc(Cl)ccc2c1=O | 78.1 µM | > 100 µM | – | > 100 µM | > 100 µM | > 100 µM | > 100 µM | > 100 µM | – | > 100 µM | – | – | – | – | – | – | – | – | – | – |
| C/C(=N/N=C(\[O-])c1ccncc1)C(F)(F)F.C/C(=N\N=C(/[O-])c1ccncc1)C(F)(F)F.[Ni+2] | – | > 1 µM | > 1 µM | – | > 1 µM | – | 0.005 µM | > 1 µM | – | – | > 1 µM | > 1 µM | > 1 µM | > 1 µM | 0.00108 µM | > 1 µM | – | – | – | – |
| COc1cc(C(C)O)c[n+](Cc2ccccc2)c1 (centres undefined) | > 100 µM | > 100 µM | > 100 µM | > 100 µM | > 100 µM | > 100 µM | > 100 µM | > 100 µM | > 100 µM | > 100 µM | – | – | – | – | – | – | – | – | – | – |
| Nc1[nH]c(=O)nc2c1cnn2C1CCCCO1 (centres undefined) | > 100 µM | > 100 µM | > 100 µM | > 100 µM | > 100 µM | > 100 µM | > 100 µM | > 100 µM | > 100 µM | > 100 µM | – | – | – | – | – | – | – | – | – | – |
| CC(C)C(C(=O)O)N1C(=O)c2ccccc2C1=O (centres undefined) | > 100 µM | > 100 µM | > 100 µM | > 100 µM | > 100 µM | > 100 µM | > 100 µM | > 100 µM | > 100 µM | > 100 µM | – | – | – | – | – | – | – | – | – | – |
| CCN1CCC(O)(/C=C/c2ccccc2C)C(C(=O)/C=C/c2ccccc2C)C1 (centres undefined) | 7.25 µM | 3.38 µM | 16.6 µM | 3.99 µM | 4.85 µM | – | 6.71 µM | > 100 µM | 14.5 µM | 3.21 µM | – | – | – | – | – | – | – | – | – | – |
| CC12C=CC(=O)C=C1CCC1C3CCC(O)(C(=O)CO)C3(C)CC(O)C12F (centres undefined) | > 100 µM | > 100 µM | > 100 µM | > 100 µM | > 100 µM | > 100 µM | > 100 µM | > 100 µM | > 100 µM | > 100 µM | – | – | – | – | – | – | – | – | – | – |
| CN1C(c2ccccc2)CC(=O)C(N)C1c1ccccc1 (centres undefined) | 49.2 µM | 32.1 µM | > 100 µM | > 70.8 µM | 66 µM | > 100 µM | > 31.6 µM | > 67.6 µM | > 100 µM | > 75.2 µM | – | – | – | – | – | – | – | – | – | – |
| c1ccc(-c2nc(N3CCNCC3)c3oc(-c4ccccc4)nc3n2)cc1 | – | – | 2.59 µM | 3.08 µM | 4.08 µM | 3 µM | 3.16 µM | 2.35 µM | 3.22 µM | 3.18 µM | – | – | 1.27 µM | 1.63 µM | 1.73 µM | 0.428 µM | 1.69 µM | 1.64 µM | 1.69 µM | 1.66 µM |
| CCCC1CCC(=C2C(=O)CCC2=O)O1 (centres undefined) | > 100 µM | > 100 µM | > 100 µM | > 100 µM | > 100 µM | > 100 µM | > 100 µM | > 100 µM | > 100 µM | > 100 µM | – | – | – | – | – | – | – | – | – | – |
| C=C(C)C1Cc2c(c3ccccc3n(C)c2=O)O1 (centres undefined) | > 100 µM | > 100 µM | > 100 µM | – | > 100 µM | > 100 µM | > 100 µM | > 100 µM | > 100 µM | > 100 µM | – | – | – | – | – | – | – | – | – | – |
| CCCCCCCCCCCCCCCC(=O)N1CCCC1C(=O)NCC(=O)NC(Cc1ccccc1)C(=O)NC(C)C(=O)NC(CO)C(=O)NC(Cc1ccc(O)cc1)C(=O)NC(CCCCN)C(=O)NC(CC(C)C)C(=O)NC(CCCN=C(N)N)C(=O)N1CCCC1C(=O)NCC(N)=O (centres undefined) (Palmitoyl-PGFASYKLRPG-NH2; configuration not given here) | – | – | 43.5 µM | 38.6 µM | 30.1 µM | – | 48.8 µM | 32.2 µM | 46.1 µM | 32.1 µM | – | – | 22.9 µM | 16.5 µM | 22.1 µM | 18.3 µM | 15.4 µM | – | 20.1 µM | 12.4 µM |
| Cn1c(-c2ccccc2)cc(-c2cccs2)c1-c1cccs1 | > 100 µM | > 100 µM | > 100 µM | > 100 µM | > 100 µM | – | > 100 µM | > 100 µM | > 100 µM | > 100 µM | – | – | – | – | – | – | – | – | – | – |

Reference: PubChem BioAssay (NCI)
